* marks the point of attachment. Palmitoyl = CCCCCCCCCCCCCCCC(=O)*
Tested on: IL-6
Experiment: Synergy test: IL-6 production on HK following blue light irradiation (ELISA)
Type: cell-based, human
Conditions: blue light 30.2 J/cm2, 24 hours contact, compound taken separately, nsd
Description: HK are cultivated in their culture medium. After rinsing with PBS, the cells are returned to this same buffer and exposed to blue light at a non-cytotoxic dose of 30.2 J/cm^2. The exhibition system consists of a set of 30 blue LEDs spread over a 30 cm^2 flat surface. The photon flux reaches the cells perpendicularly. The temperature is controlled, and all the cells are in the same enclosure (37° C./5% CO2). The emission spectrum is centered on 420 nm. The cells are then brought into contact with each of the invention compounds taken separately or with the composition according to the invention for 24 hours. The culture media are then harvested, and the IL-6 concentrations assayed by ELISA method. An assay on the cell layers is used to reduce to the number of cells.

O=c1cc(-c2ccccc2)oc2cc(O)cc(O)c12 [Chrysine, 5,7-dihydroxyflavone]
% of variation in IL-6 production (1.6 ppm): −10%

Palmitoyl-GQPR-OH [Pal-GQPR]
% of variation in IL-6 production (15 ppm): −7%
